Reference: patent US12466820B2, “Amino quinazoline derivatives as P2X3 inhibitors” (CHIESI FARMACEUTICI S.p.A., priority 2019, dated 2025)
Structures can show the parent of a compound that is named as a salt.

Target: T1, h P2X3 (Homo sapiens, UniProt P56373)
T1 sequence (P56373 1-397): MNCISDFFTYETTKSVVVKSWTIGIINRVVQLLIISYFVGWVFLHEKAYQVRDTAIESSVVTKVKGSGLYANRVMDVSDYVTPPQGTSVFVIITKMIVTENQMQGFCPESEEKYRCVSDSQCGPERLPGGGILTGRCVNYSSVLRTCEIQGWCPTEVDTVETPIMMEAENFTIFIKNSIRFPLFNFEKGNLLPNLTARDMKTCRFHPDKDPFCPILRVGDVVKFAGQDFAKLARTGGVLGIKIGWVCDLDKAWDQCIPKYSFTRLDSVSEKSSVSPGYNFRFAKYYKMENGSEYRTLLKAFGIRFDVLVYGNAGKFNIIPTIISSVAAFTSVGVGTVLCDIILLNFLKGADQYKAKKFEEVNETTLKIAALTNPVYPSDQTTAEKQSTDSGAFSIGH
Experiment: In vitro electrophysiology assay for P2X3 (automated whole-cell patch clamp, Sophion Qube)
Format: cell-based
Settings: Table 6; range of activity; inhibition of P2X3 current, agonist α,β-MeATP (800 nM)
Experimental: Pharmacological Activity of the Compounds of the Invention In Vitro Electrophysiology Assay for P2X3
Cells expressing P2X3 receptors were grown according to standard practice and maintained at 37° C. in a 5% humidified CO2 atmosphere. The cells were seeded into T175 flask 2 days prior to the day of the assay and dissociated from the flasks using TrypLE when grown to confluence of 80-90%. The dissociated cells were resuspended in serum free media at a cell density of 3×10^6 cells/ml and loaded onto the Sophion Qube automated patch-clamp system. The extracellular assay buffer contained 145 mM NaCl, 4 mM KCl, 2 mM CaCl2), 1 mM MgCl2, 10 mM HEPES, and 10 mM glucose at pH 7.4. The intracellular assay solution contained 140 mM CsF, 10 mM NaCl, 10 mM EGTA, 10 mM HEPES at pH 7.2. Agonist stock solutions were prepared in H2O and diluted in bath solution prior to use. All antagonists were prepared as 10 mM stock solutions in DMSO and diluted in bath solution prior to use. All experiments were performed under the whole-cell patch clamp configuration at room temperature with 384 individual cells being voltage clamped at −60 mV simultaneously on the Sophion Qube instrument. Two baseline responses were established with the application of α,β-MeATP (800 nM), with the subsequent agonist applications being washed out using extracellular assay buffer containing 0.5 U/ml apyrase. Following the second agonist application, antagonist was incubated in the absence of α,β-MeATP for 10 minutes. After antagonist preincubation, 800 nM α,β-MeATP and antagonist were co-administered to determine the inhibitory effect of the antagonist. One concentration of an antagonist was assessed against a single cell, with different concentrations of the antagonist applied to other cells on the 384 recording substrate. The control P2X3 current amplitude was taken from the peak current amplitude from the second agonist response prior to preincubation with antagonist. The peak P2X3 current amplitude in the presence of antagonist was used to calculate the inhibitory effect at each concentration of the antagonist according to the following equation: […]
Concentration-response curves were constructed from ten different concentrations with each concentration of antagonist tested on at least two individual cells. The concentration of the antagonist to inhibit P2X3 current by 50% (IC50) was determined by fitting the data with the following equation: […]
Where ‘a’ is minimum response, ‘b’ is maximum response, ‘c’ is IC50 and ‘d’ is Hill slope.
The results for individual compounds are provided below in Table 6 and are expressed as range of activity.
The activity of the comparative examples A and B have been tested in the in vitro Electrophysiology Assay for P2X3 as described above.

IC50 [nM]	Structure (SMILES)
< 316	Cc1ccc(-c2cc(OC3CCOCC3)c3ncnc(NC(C)c4nnc(C)s4)c3c2)nc1 (single isomer, unassigned) [Example 84, 6-(5-methyl-2-pyridyl)-N-[1-(5-methyl-1,3,4-thiadiazol-2-yl)ethyl]-8-tetrahydropyran-4-yloxy-quinazolin-4-amine]
< 316	Cc1ccc(CNc2ncnc3c(OCCO)cc(-c4ncc(C)s4)cc23)nn1 [Example 36, 2-((4-(((6-methylpyridazin-3-yl)methyl)amino)-6-(5-methylthiazol-2-yl)quinazolin-8-yl)oxy)ethan-1-ol]
< 316	Cc1nc([C@@H](C)Nc2ncnc3c(OC4CCOCC4)cc(-c4ccc(F)cn4)cc23)no1 [Example 82, 6-(5-fluoro-2-pyridyl)-N-[(1R)-1-(5-methyl-1,2,4-oxadiazol-3-yl)ethyl]-8-tetrahydropyran-4-yloxy-quinazolin-4-amine]
316 to 3160	Cc1cnc(-c2cc(OCC3(O)CCOCC3)c3ncnc(NC(C)c4ccc(C)nn4)c3c2)nc1 (stereo not shown) [Example 34, 4-[[4-[1-(6-methylpyridazin-3-yl)ethylamino]-6-(5-methylpyrimidin-2-yl)quinazolin-8-yl]oxymethyl]tetrahydropyran-4-ol]
316 to 3160	COc1cc(-c2ncc(C)cn2)cc2c(NC(C)c3nnc(C)s3)ncnc12 (single isomer, unassigned) [Example 124, 8-Methoxy-6-(5-methylpyrimidin-2-yl)-N-[1-(5-methyl-1,3,4-thiadiazol-2-yl)ethyl]quinazolin-4-amine]
316 to 3160	COc1cc(-c2ccc(F)cn2)cc2c(NCc3ccn(C)n3)ncnc12 [Example 140, 6-(5-fluoro-2-pyridyl)-8-methoxy-N-[(1-methylpyrazol-3-yl)methyl]quinazolin-4-amine]
316 to 3160	COc1cc(-c2ccc(F)cn2)cc2c(N[C@H](C)c3ccn(C)n3)ncnc12 [Example 158, 6-(5-fluoro-2-pyridyl)-8-methoxy-N-[(1R)-1-(1-methylpyrazol-3-yl)ethyl]quinazolin-4-amine]
316 to 3160	COc1cc(-n2ccc(C)n2)cc2c(N[C@H](C)c3ccc(C)nn3)ncnc12 [Example 103, (R)-8-methoxy-6-(3-methyl-1H-pyrazol-1-yl)-N-(1-(6-methylpyridazin-3-yl)ethyl)quinazolin-4-amine]
< 316	Cc1nnc([C@@H](C)Nc2ncnc3c(S(=O)(=O)N4CCOCC4)cc(-c4ccc(F)cc4)cc23)s1 (racemic) [Example 10, (Rac)-6-(4-fluorophenyl)-N-(1-(5-methyl-1,3,4-thiadiazol-2-yl)ethyl)-8-(morpholinosulfonyl)quinazolin-4-amine]
316 to 3160	COc1cc(-c2ccc(F)cc2)cc2c(NCc3ccc(F)cn3)ncnc12 [Example 161, 6-(4-Fluorophenyl)-N-[(5-fluoro-2-pyridyl)methyl]-8-methoxy-quinazolin-4-amine]
316 to 3160	Cc1cnc(-c2cc(OC3CCOCC3)c3ncnc(NC(C)c4nnc(C)s4)c3c2)s1 (stereo not shown) [Example 81, N-[1-(5-methyl-1,3,4-thiadiazol-2-yl)ethyl]-6-(5-methylthiazol-2-yl)-8-tetrahydropyran-4-yloxy-quinazolin-4-amine]
< 316	COc1cc(-c2ncc(C)s2)cc2c(NC(C)c3nnc(C)s3)ncnc12 (single isomer, unassigned) [Example 165, 8-methoxy-N-(1-(5-methyl-1,3,4-thiadiazol-2-yl)ethyl)-6-(5-methylthiazol-2-yl)quinazolin-4-amine]
3160 to 31600	Cc1ccc(CNc2ncnc3c(OC4COC4)cc(-c4ccc(F)cc4)cc23)nn1 [Example 74, 6-(4-fluorophenyl)-N-((6-methylpyridazin-3-yl)methyl)-8-(oxetan-3-yloxy)quinazolin-4-amine]
< 316	COc1cc(-c2ccc(F)cc2)cc2c(N[C@@H](C)c3cnc(C(F)(F)F)nc3)ncnc12 [Example 185, 6-(4-fluorophenyl)-8-methoxy-N-[(1S)-1-[2-(trifluoromethyl)pyrimidin-5-yl]ethyl]quinazolin-4-amine formate]
316 to 3160	COc1cc(-c2ccc(F)cn2)cc2c(NCc3cc(C)no3)ncnc12 [Example 135, 6-(5-fluoropyridin-2-yl)-8-methoxy-N-((3-methylisoxazol-5-yl)methyl)quinazolin-4-amine]
316 to 3160	C[C@@H](Nc1ncnc2c(C3CCOCC3)cc(-c3ccc(F)cc3)cc12)c1cnc(C(F)(F)F)nc1 [Example 26, (R)-6-(4-fluorophenyl)-8-(tetrahydro-2H-pyran-4-yl)-N-(1-(2-(trifluoromethyl)pyrimidin-5-yl)ethyl)quinazolin-4-amine]

Second part, the molecule before the results:

Structure (SMILES)	IC50 [nM]
COc1cc(-n2cc(Cl)cn2)cc2c(N[C@H](C)c3cnc(C(F)(F)F)nc3)ncnc12 [Example 104, (R)-6-(4-chloro-1H-pyrazol-1-yl)-8-methoxy-N-(1-(2-(trifluoromethyl)pyrimidin-5-yl)ethyl)quinazolin-4-amine]	< 316
COc1cc(-c2ncc(C)cn2)cc2c(NCc3nc(C)no3)ncnc12 [Example 156, 8-Methoxy-N-((3-methyl-1,2,4-oxadiazol-5-yl)methyl)-6-(5-methylpyrimidin-2-yl)quinazolin-4-amine]	316 to 3160
COc1cc(-c2ncc(C)cn2)cc2c(NC(C)c3nnc(C)o3)ncnc12 (single isomer, unassigned) [Example 128]	3160 to 31600
COc1cc(-c2ncc(C)cn2)cc2c(NC(C)c3nc(-c4ccncc4)no3)ncnc12 (stereo not shown) [Example 6, 8-methoxy-6-(5-methylpyrimidin-2-yl)-N-(1-(3-(pyridin-4-yl)-1,2,4-oxadiazol-5-yl)ethyl)quinazolin-4-amine]	316 to 3160
COc1cc(-c2ccc(F)cn2)cc2c(NCc3noc(C)n3)ncnc12 [Example 132, 6-(5-Fluoropyridin-2-yl)-8-methoxy-N-((5-methyl-1,2,4-oxadiazol-3-yl)methyl)quinazolin-4-amine]	316 to 3160
COc1cc(-c2ncc(C)s2)cc2c(NCc3ccn(C)c(=O)c3)ncnc12 [Example 115, 4-(((8-methoxy-6-(5-methylthiazol-2-yl)quinazolin-4-yl)amino)methyl)-1-methylpyridin-2(1H)-one]	< 316
Cc1cnc(-c2cc(OCC(=O)O)c3ncnc(NCc4ccc(C)nn4)c3c2)nc1 [Example 55, 2-((4-(((6-methylpyridazin-3-yl)methyl)amino)-6-(5-methylpyrimidin-2-yl)quinazolin-8-yl)oxy)acetic acid dihydrochloride]	< 316
COc1cc(-c2ccc(F)cn2)cc2c(NCc3nc(C)no3)ncnc12 [Example 133, 6-(5-fluoropyridin-2-yl)-8-methoxy-N-((3-methyl-1,2,4-oxadiazol-5-yl)methyl)quinazolin-4-amine]	316 to 3160
COc1cc(-c2ncc(C)cn2)cc2c(NC(C)c3nc(C)no3)ncnc12 (single isomer, unassigned) [Example 122, 8-Methoxy-N-[1-(3-methyl-1,2,4-oxadiazol-5-yl)ethyl]-6-(5-methylpyrimidin-2-yl)quinazolin-4-amine]	3160 to 31600
COc1cc(-c2ccc(C)cn2)cc2c(NCc3cc(C)on3)ncnc12 [Example 139, 8-methoxy-N-[(5-methylisoxazol-3-yl)methyl]-6-(5-methyl-2-pyridyl)quinazolin-4-amine]	< 316
COc1cc(-n2ccc(Cl)n2)cc2c(NC(C)c3cnc(C(F)(F)F)nc3)ncnc12 (stereo not shown) [Example 95, 6-(3-Chloro-1H-pyrazol-1-yl)-8-methoxy-N-(1-(2-(trifluoromethyl)pyrimidin-5-yl)ethyl)quinazolin-4-amine]	< 316
COc1cc(-n2cc(F)cn2)cc2c(N[C@H](C)c3cnc(C(F)(F)F)nc3)ncnc12 [Example 97, (R)-6-(4-fluoro-1H-pyrazol-1-yl)-8-methoxy-N-(1-(2-(trifluoromethyl)pyrimidin-5-yl)ethyl)quinazolin-4-amine]	316 to 3160
